From patent US20200032271A1, “COMBINATION THERAPY WITH LIPOSOMAL ANTISENSE OLIGONUCLEOTIDES” (Bio-Path Holdings, Inc., priority 2016, published 2020)
[PEt] = P-ethoxy (ethyl phosphotriester) internucleoside linkage

Tests used:
BV173 cells = assay: Cell cycle analysis (7-AAD flow cytometry); type: cell-based, human; conditions: BP1001 1 day before dasatinib, harvested three days later (FIGS. 8A-D)
Procedure: Cells were then fixed and permeabilized for 1 h at 4° C. with 1×Fixation/Permeabilization buffer (Ebioscience, San Diego, Calif., USA). After permeabilization, cells were washed and incubated with 7-aminoactinomycin D (7-AAD, Biolegend, San Diego, Calif., USA) in the dark at 4° C. for about 30 min. Flow cytometric data acquisition was acquired using BD FACSDiva™ software (BD Biosciences, San Jose, Calif., USA). The flow cytometer was set to collect 20,000 events. Relative percentages in the different cell cycle phases (sub-G1, G1, S, G2/M) were reported.
[…] Three days later, cells were harvested and processed for flow cytometry.

[1] = Procedure: The potential toxicity of a twice weekly intravenously (slow bolus) administered BP1001 in Dutch Belted rabbits was conducted. BP1001 was administered over a 28-day period followed by a 2-week recovery phase.
Doses were administered on Study Days 1, 3, 8, 10, 15, 17, 22, and 24. The first day of dosing on the study was designated as Study Day 1. The doses were given at approximately the same time each day. Individual dose volumes were calculated based on the most recently recorded body weight for each animal. Study Day 1 dose levels were calculated on a pretest body weight.

[2] = system: acute myeloid leukemia (AML) cells; assay: Cytarabine cytotoxicity after BP1001 pretreatment; type: cell-based; conditions: preclinical studies
[3] = Tissue distribution study in mice (32P-labeled BP1001); type: in vivo; conditions: mouse, 20 mg/kg i.v.
Procedure: Tissue distribution studies of BP1001 were conducted in mice following i.v. administration. Twenty mice (5/group) were divided into three test article groups and one control group. Test article groups were injected i.v. via the tail vein with radio-labeled (^32P) BP1001 at a dose of 20 mg of oligonucleotide per kg of body weight. Injected mice were euthanized by CO2 inhalation at 4, 24, and 48 hours following injection for organ harvest. Control animals were non-injected animals. Spleen, liver, kidney, heart, stomach, lung, and bone marrow tissue were collected from all animals, and tissue samples (50-100 mg) from each organ were weighed and processed. ^32P radioactivity was counted in a scintillation counter. Results were expressed as mean μg BP1001/g tissue. As expected, no radioactivity was detected in control animals. […] BP1001 accumulated in all tissues examined, with the highest accumulation in spleen, liver, and kidney tissue. At 4 h following injection, mean BP1001 tissue concentrations per g of tissue were: 64 μg (spleen), 50 μg (liver), 34 μg (kidney), and ranged from 12-34 μg in other tissues. […] A minimal amount of BP1001 (˜0.4 μg in two femurs) was detected in the bone marrow, where the concentration remained relatively constant for […].

[4] = Plasma pharmacokinetics of Grb2 antisense oligo in patients; conditions: human, in vivo
Procedure: Pharmacokinetic (PK) analysis was performed on plasma samples collected from refractory/relapsed patients diagnosed with AML receiving BP1001 (60 mg/m^2)+LDAC or receiving BP1001 (90 mg/m^2)+LDAC.
Blood samples for measurement of Grb2 antisense oligo concentrations were collected from patients in cohorts 7 and 8, at predose, 1, 2, 4, 6, 8, 24, 72 h post start-of-infusion (SOI). Urine samples for measurement of BP1001 concentrations were also collected from patients in cohorts 7 and 8, at start of dose-4 h, 4-8 h postdose, and 8-24 h postdose. PK blood samples were processed to plasma and analyzed using a validated method (Charles River Laboratories, Montreal, Canada) with a lower limit of quantitation (LLOQ; 0.5 ng/mL). Urine samples were analyzed using a validated method (Charles River Laboratories, Montreal, Canada) with a LLOQ of 1.00 ng/mL.
PK parameters were estimated using Phoenix pharmacokinetic software (Certara). A non-compartmental approach consistent with the IV infusion route of administration was used for parameter estimation, using an estimated infusion time of 2.5 h. All parameters were generated from Grb2 antisense oligo individual concentrations in plasma from Day 1 of Cycle 1, whenever practical. […] Parameters were estimated using nominal sampling times relative to the start of infusion. The area under the concentration vs. time curve (AUC) was calculated using the linear trapezoidal method with linear interpolation. The slope of the terminal elimination phase was determined using log linear regression on the unweighted concentration data.

Q: Which “percentage of cells in sub-G1 phase” value (BV173 cells) does the source give for “BP1001: liposome-incorporated P-ethoxy antisense oligodeoxynucleotide (5′-ATATTTGGCGATGGCTTC-3′, SEQ ID NO: 1) specific to grb2 mRNA, in neutral DOPC liposomes (DNA, all [PEt], methylation of C not given here; incorporated in neutral DOPC liposomes)” here?
A: 3.1%

Q: And the “effects on coagulation parameters” value ([1]; rabbit)?
A: no observed effects

Q: And the “toxicity (clinical observations, body weights, bone marrow cytology, clinical pathology, organ weights, microscopic findings)” value ([1]; rabbit, 3.75, 5.00 or 7.50 mg/kg i.v. slow bolus twice weekly, 28 days)?
A: no apparent toxicity

Q: What about the “effect of pretreatment on cytarabine cytotoxicity” value [2] of the same substance?
A: enhances cytarabine cytotoxicity

Q: And the “tissue half-life in lungs” value [3]?
A: ~48 h

Q: What about the “tissue half-life in spleen, liver, kidney, heart and stomach” value [3] of the same substance?
A: approximately 24 h

Q: What about the “mean tissue concentration, kidney” value ([3]; 4 h) of the same substance?
A: 34 μg/g tissue

Q: What about the “mean tissue concentration, liver” value ([3]; 4 h) of the same substance?
A: 50 μg/g tissue

Q: What about the “mean tissue concentration, other tissues” value ([3]; 4 h) of the same substance?
A: 12-34 μg/g tissue

Q: And the “mean tissue concentration, spleen” value ([3]; 4 h)?
A: 64 μg/g tissue

Q: And the “amount detected in bone marrow (two femurs)” value ([3]; relatively constant for 72 h)?
A: ~0.4 µg

Q: And the Tmax ([4]; 60 mg/m2)?
A: 1 h

Q: What about the t1/2 ([4]; 60 mg/m2) of the same substance?
A: 29.6 ± 8.1 h

Q: And the Tmax ([4]; 90 mg/m2)?
A: 1 h

Q: What about the t1/2 ([4]; 90 mg/m2) of the same substance?
A: 11.8 ± 5.4 h
